In PubChem BioAssay (NCI) one finds TGI and GI50 data, which are given here for 14 molecules.

SMILES strings stand for the structures. Values joined by “and” are separate entries in the source; they are usually repeats but may differ in a detail not shown here. Identical values can stand only once.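 Interpolation was linear, between the two tested concentrations surrounding the appropriate level; five concentrations were tested over 48 hours in 96-well plates. At the GI50, growth is halved. TGI: concentration producing complete growth inhibition.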

Test systems include TK-10 renal; HT29 colon; CAKI-1 renal; HOP-62 NSCLC; SK-OV-3 ovarian; HCT-15 colon; IGROV1 ovarian; SF-539 CNS; SK-MEL-28 melanoma; HL-60(TB) leukemia.
What all share (assay): growth of human tumour cells (NCI), 48 h

As for `CC(=O)OCC1OC(OC(C)=O)C(NC#N)C(OC(C)=O)C1OC(C)=O` (centres undefined), the TGI in the test with TK-10 renal, with HT29 colon, in the test on CAKI-1 renal, in the test with HOP-62 NSCLC, with SK-OV-3 ovarian and in the test with HCT-15 colon was more than 100 µM throughout. Besides, the TGI in the test with IGROV1 ovarian, in the test on SF-539 CNS, in the test with SK-MEL-28 melanoma and with HL-60(TB) leukemia was more than 100 µM each time.

`O=C1NC2(CCCCC2)C2=C1CCCCC2`: the TGI in the test with TK-10 renal, in the test on HT29 colon, in the test with CAKI-1 renal, with HOP-62 NSCLC, with SK-OV-3 ovarian and in the test with HCT-15 colon was more than 100 µM throughout. Also, the TGI in the test on IGROV1 ovarian, in the test with SF-539 CNS, in the test with SK-MEL-28 melanoma and with HL-60(TB) leukemia was more than 100 µM each time.

With `CS(=O)(=O)Nc1ccc(Nc2c3ccccc3nc3cc(Cl)ccc23)cc1`, the GI50 was 5.07 µM in the test with TK-10 renal; 2.57 µM with HT29 colon; 0.397 µM with CAKI-1 renal; 0.958 µM in the test with HOP-62 NSCLC; 1.28 µM in the test on SK-OV-3 ovarian; 1.37 µM in the test with HCT-15 colon. The GI50 in the test with IGROV1 ovarian is 1.62 µM; in the test with SF-539 CNS, 1.18 µM; in the test on SK-MEL-28 melanoma it was 3.62 µM; in the test with HL-60(TB) leukemia, 0.843 µM. Also, the TGI in the test on TK-10 renal stood at 18.7 µM; in the test on HT29 colon, 14.1 µM; in the test with CAKI-1 renal, 8.68 µM; in the test with HOP-62 NSCLC, 18 µM; with SK-OV-3 ovarian, 13.3 µM; in the test with HCT-15 colon it was 14.2 µM. Further, the TGI in the test with IGROV1 ovarian was 19 µM; in the test with SF-539 CNS, 13.5 µM; in the test with SK-MEL-28 melanoma, 19.2 µM; in the test on HL-60(TB) leukemia, 24.6 µM.

With `Cc1c(N)nc(C2CC(=O)N2CC(N)C(N)=O)nc1C(=O)NC(C(=O)NC(C)C(O)C(C)C(=O)NC(C(=O)NCCc1nc(-c2nc(C(=O)NCCNCC(C)O)cs2)cs1)C(C)O)C(OC1OC(CO)C(O)C(O)C1OC1OC(CO)C(O)C(OC(N)=O)C1O)c1cnc[nH]1` (centres undefined), the GI50 was 11.1 µM in the test on TK-10 renal; 33.1 µM with HT29 colon; 0.0234 µM with CAKI-1 renal; 0.188 µM in the test with HOP-62 NSCLC; 10.6 µM in the test on SK-OV-3 ovarian; 42.7 µM with HCT-15 colon. Moreover, the GI50 in the test with IGROV1 ovarian is 13.4 µM; in the test with SF-539 CNS it was 0.0499 µM; in the test with SK-MEL-28 melanoma, more than 50 µM; in the test on HL-60(TB) leukemia it was 24.4 µM. Also, the TGI is 50 µM and > 100 µM with TK-10 renal; 50 µM and > 100 µM in the test with HT29 colon; 6.25 µM and 0.914 µM in the test with HOP-62 NSCLC; 50 µM and > 32.9 µM with SK-OV-3 ovarian; 50 µM and > 75.9 µM with HCT-15 colon; 50 µM and > 100 µM with IGROV1 ovarian. For the same molecule, the TGI in the test with SF-539 CNS is 1.32 µM and 0.255 µM; with SK-MEL-28 melanoma, more than 100 µM; in the test with HL-60(TB) leukemia, 50 µM and > 37.4 µM.

For `OCCn1c(-c2ccncc2)c(-c2ccc(F)cc2)c2ncccc21`, the GI50 in the test with TK-10 renal, in the test with HT29 colon, in the test with CAKI-1 renal, in the test on HOP-62 NSCLC, with SK-OV-3 ovarian and with HCT-15 colon was more than 25 µM in each case. The GI50 with IGROV1 ovarian, in the test with SF-539 CNS, in the test with SK-MEL-28 melanoma and in the test on HL-60(TB) leukemia was more than 25 µM in each case. Moreover, the TGI in the test on TK-10 renal, in the test with HT29 colon, with CAKI-1 renal, with HOP-62 NSCLC, with SK-OV-3 ovarian and with HCT-15 colon was more than 25 µM each time. Further, the TGI in the test with IGROV1 ovarian, in the test with SF-539 CNS, in the test with SK-MEL-28 melanoma and in the test on HL-60(TB) leukemia was more than 25 µM throughout.

Consider `COc1ccc(-c2ccc(/C=N/n3c(COc4ccc(Cl)c(C)c4)nn(CN4CCOCC4)c3=S)o2)c([N+](=O)[O-])c1`, for which the GI50 in the test with TK-10 renal was 16.5 µM; in the test on HT29 colon, 21.6 µM; in the test with CAKI-1 renal, 23.6 µM; with HOP-62 NSCLC, 38.6 µM; in the test on SK-OV-3 ovarian, 34.4 µM; in the test with HCT-15 colon, 30.7 µM. In addition, the GI50 was 40.3 µM with IGROV1 ovarian, 22 µM in the test on SF-539 CNS, 20.5 µM with SK-MEL-28 melanoma and 24.1 µM in the test on HL-60(TB) leukemia. For the same molecule, the TGI with TK-10 renal is 50.5 µM; with HT29 colon it was 51.2 µM; in the test with CAKI-1 renal, 57.1 µM; in the test on HOP-62 NSCLC, more than 100 µM; with SK-OV-3 ovarian it was more than 100 µM; in the test with HCT-15 colon, more than 100 µM. The TGI in the test on IGROV1 ovarian was more than 100 µM; in the test on SF-539 CNS it was 53.9 µM; with SK-MEL-28 melanoma, 53.7 µM; in the test on HL-60(TB) leukemia, 50.9 µM.

Turning to `c1csc(-c2[nH]nc3c2CCc2ccccc2-3)c1`, the GI50 was 0.862 µM in the test with TK-10 renal; 15.6 µM with HT29 colon; 19.6 µM in the test on CAKI-1 renal; 12.8 µM with HOP-62 NSCLC; 24.6 µM in the test on SK-OV-3 ovarian; 0.289 µM in the test on HCT-15 colon. Moreover, the GI50 in the test with IGROV1 ovarian is 19.4 µM; with SF-539 CNS, 12.9 µM; in the test on SK-MEL-28 melanoma, 19.2 µM; in the test with HL-60(TB) leukemia, 20.5 µM. Moreover, the TGI in the test on TK-10 renal amounted to 61.6 µM; with HT29 colon it was 42.6 µM; in the test with CAKI-1 renal it was 58.1 µM; with HOP-62 NSCLC it was 28.7 µM; in the test with SK-OV-3 ovarian it was 65.6 µM; in the test with HCT-15 colon, 18.6 µM. The TGI in the test with IGROV1 ovarian worked out at 73 µM; in the test with SF-539 CNS it was 29 µM; in the test with SK-MEL-28 melanoma it was 39.7 µM; in the test with HL-60(TB) leukemia, 47.3 µM.

Regarding `CN1C/C(=C\c2ccco2)c2nc(N)nc(-c3ccco3)c2C1`, the TGI in the test with TK-10 renal, in the test with HT29 colon, in the test on CAKI-1 renal, in the test on HOP-62 NSCLC, in the test on SK-OV-3 ovarian and in the test on HCT-15 colon was more than 100 µM each time. Besides, the TGI in the test on IGROV1 ovarian, in the test on SF-539 CNS, in the test with SK-MEL-28 melanoma and in the test on HL-60(TB) leukemia was more than 100 µM in each case.

For `Cc1c(C(=O)C/C(=N/NC(=O)CC#N)C(N)=O)[n+](=O)c2ccccc2n1[O-]`, the TGI with TK-10 renal, with HT29 colon, in the test on CAKI-1 renal, in the test on HOP-62 NSCLC, in the test with SK-OV-3 ovarian and in the test with HCT-15 colon was more than 100 µM throughout. The TGI in the test on IGROV1 ovarian was 87.5 µM; in the test with SF-539 CNS it was more than 100 µM; in the test with SK-MEL-28 melanoma, more than 100 µM; in the test with HL-60(TB) leukemia, 69.4 µM.

In the case of `COc1ccc(Cl)cc1Nc1nc(C(F)(F)F)ccc1C(=O)N/N=C/c1ccc(Cl)cc1`, the GI50 in the test with TK-10 renal was 0.513 µM; in the test with HT29 colon it was 7.4 µM; in the test on CAKI-1 renal, 5.37 µM; in the test with HOP-62 NSCLC, 3.51 µM; with SK-OV-3 ovarian, 1.95 µM; with HCT-15 colon, 2.41 µM. For the same molecule, the GI50 in the test with IGROV1 ovarian is 11 µM; in the test on SF-539 CNS, 6.63 µM; in the test with SK-MEL-28 melanoma, 74 µM; with HL-60(TB) leukemia, 7.58 µM. Besides, the TGI in the test with TK-10 renal is 16.8 µM; in the test with HT29 colon, more than 100 µM; in the test on CAKI-1 renal, 29.7 µM; in the test on HOP-62 NSCLC, 24 µM; in the test with SK-OV-3 ovarian, 22.9 µM; in the test with HCT-15 colon, more than 100 µM. Also, the TGI with IGROV1 ovarian is 79.1 µM; in the test with SF-539 CNS, 27.5 µM; in the test with SK-MEL-28 melanoma, more than 100 µM; in the test with HL-60(TB) leukemia it was 22 µM.

For the molecule `CC1=C2[C@@H](c3ccccc3)C3C=CC2(C=C3C(F)(F)F)N(C(=O)NC2CCCCC2)C1=O` (some centres undefined), the TGI in the test on TK-10 renal, with HT29 colon, in the test on CAKI-1 renal, in the test on HOP-62 NSCLC, in the test on SK-OV-3 ovarian and in the test with HCT-15 colon was more than 100 µM throughout. Further, the TGI in the test with IGROV1 ovarian is more than 100 µM; in the test with SF-539 CNS it was more than 100 µM; in the test with SK-MEL-28 melanoma, more than 100 µM; in the test with HL-60(TB) leukemia, 39.2 µM.

Turning to `O=NNc1nc(-c2ccccn2)nc2ccccc12`, the TGI is more than 100 µM with TK-10 renal; 18.7 µM in the test on HT29 colon; more than 100 µM in the test with CAKI-1 renal; 48.1 µM in the test with HOP-62 NSCLC; more than 100 µM with SK-OV-3 ovarian; 14.7 µM with HCT-15 colon. Also, the TGI in the test on IGROV1 ovarian, in the test on SF-539 CNS, with SK-MEL-28 melanoma and in the test on HL-60(TB) leukemia was more than 100 µM throughout.

Turning to `CN1CCN(Cc2ccc(NC(=O)c3cncc(C#Cc4cnc5cccnn45)c3)cc2C(F)(F)F)CC1`, the GI50 in the test with TK-10 renal was 1.88 µM; in the test with HT29 colon it was 0.963 µM; with CAKI-1 renal it was 1.44 µM; in the test on HOP-62 NSCLC, 1.36 µM; with SK-OV-3 ovarian, 1.67 µM; in the test on HCT-15 colon it was 1.47 µM. For the same molecule, the GI50 in the test with IGROV1 ovarian was 1.3 µM; in the test on SF-539 CNS, 0.558 µM; in the test with SK-MEL-28 melanoma, 1.3 µM; with HL-60(TB) leukemia it was 0.818 µM. Moreover, the TGI in the test with TK-10 renal is 6.03 µM; in the test with HT29 colon, 5.1 µM; with CAKI-1 renal it was 5.22 µM; with HOP-62 NSCLC, 5.08 µM; in the test with SK-OV-3 ovarian, 5.21 µM; in the test with HCT-15 colon, 5.3 µM. In addition, the TGI worked out at 5.59 µM with IGROV1 ovarian, 1.33 µM in the test with SF-539 CNS, 4.63 µM in the test on SK-MEL-28 melanoma and 2.44 µM with HL-60(TB) leukemia.

In the case of `CCOC(=O)C1=C(O)c2c(OC)ccc(OC)c2C(=O)C1=O`, the TGI in the test with TK-10 renal, with HT29 colon, in the test on CAKI-1 renal, in the test with HOP-62 NSCLC, in the test on SK-OV-3 ovarian and in the test with HCT-15 colon was more than 100 µM throughout. For the same molecule, the TGI in the test with IGROV1 ovarian, in the test with SF-539 CNS, in the test with SK-MEL-28 melanoma and in the test with HL-60(TB) leukemia was more than 100 µM in each case.
